# According to patent US20250154105A1, “POLYCYCLIC COMPOUND AND USE THEREOF” (TYK MEDICINES, INC., priority 2021, published 2025):
# Experiments:
# [1] = test system: human pleural mesothelioma cells NCI-H226; assay: Cell anti-proliferation experiment (CCK8), NCI-H226; format: cell-based
# Source text: TEST EXAMPLE 1 CELL ANTI-PROLIFERATION EXPERIMENT
# Determination of proliferation inhibition of YAP-TEAD inhibitor compounds on human pleural mesothelioma cells NCI-H226
# Experimental materials and equipments: Human pleural mesothelioma cells NCI-H226 was purchased from NANJING COBIOER BIOSCIENCES CO., LTD. RPMI-1640 medium (Bio-Channel), DMSO (dimethyl sulfoxide), CCK8 (WST-8) Cell Assay Kit (Beyotime), 0.25% EDTA-Tripsin (trypsin digest), 1×PBS (phosphate buffer, PH7.2), 96-well plate (Corning), fetal bovine serum (FBS), 10,000 U/mL penicillin-G/streptomycin, high-speed freezing centrifuge (EPPENDORF 5810R), enzyme-linked immunosorbent assay (Tecan Spark).
# 1. Cell plating • A) Tumor cells were cultured to 80-90% density in RPMI-1640 (containing 10% FBS and 100 U/mL penicillin-G/streptomycin) under the condition of 37° C., 5% CO2 and saturated humidity. • B) The culture medium was removed from the 10 cm culture dish. • C) Cells were washed with 10 ml 1×PBS. • D) 4 ml of 0.25% EDTA-Tripsin was added to digest pancreatin for 5 minutes in an incubator at 37° C. and 5% CO2. Then the mixture was transferred to a 15 ml centrifuge tube, and centrifuged for 5 minutes at 200 g. The supernatant was discarded to obtain cell precipitation. • E) The cell precipitation was resuspended with 4 ml of […], counted and adjusted to 10,000 cells/ml. • F) The cell suspension was added to a 96-well plate with a volume of 100 μL per well and cultured overnight in an incubator at 37° C. and 5% CO2.
# • Compound dilution • A) Preparation of gradient dilution solutions of the tested compounds: the tested compounds was configured to 1 mM stock solution. Then […] of stock solution was dissolved in 1.5 ml of DMSO-free culture solution, and then 3-fold continuous gradient dilution with 0.1% DMSO culture solution was performed to get a total of 9 concentrations. The diluted concentrations of the compound were as follows: 333.33 nM, 111.11 nM, 37.03 nM, 12.35 nM, 4.15 nM, 1.37 nM, 0.46 nM, 0.15 nM • B) After full mixing, 100 μL of culture compound solution was taken to replace the culture solution in the cell culture plate, with 4 duplicated wells at each concentration; • C) The cells were transferred to the incubator to incubate for 3 days.
# • A) the cell culture plate was taken out and added with 10 μl of CCK-8 (WST-8) solution per well in the biosafety cabinet; • B) The cell culture plate was put back into the incubator and continued to incubate for 3 hours; • C) 450 nm wavelength was selected to measure absorbance value on TECAN enzyme linked immunosorbent assay detector.
# The following formula was used to calculate the cell viability (% Cell Viability); • Cell Viability (%)=[A(Drug-added)-A(Blank)]/[A(0 Drug-added)-A(blank)][…] • A (Drug-added): The absorbance of wells containing cells, CCK8 solution, and drug solution. • A (Blank): The absorbance of wells containing culture medium and CCK8 solution, but without cells. • A (0 Drug-added): The absorbance of wells containing cells, CCK8 solution, but without drug solution. • Cell viability: Cell proliferation viability or cytotoxicity viability was determined by the IC50 value obtained by curve fitting using GraphPad Prism 8 software.
# YAP-TEAD = YAP-TEAD inhibitor activity by Nano luciferase method (8xGTiiC-nLuc reporter in 293T cells); format: cell-based; conditions: Homo sapiens, HEK-293T, 48 hours incubation, read-out: Nano-luciferase detection (IC50)
# Source text: EXAMPLE 2: YAP-TEAD INHIBITOR ACTIVITY WAS DETECTED BY NANO LUCIFERASE METHOD
# (1) Experimental materials and equipments: 293T cells were purchased from NANJING COBIOER BIOSCIENCES CO., LTD. DMEM medium (High sugar, no phenol red, Bio-Channel), DMSO (dimethyl sulfoxide), Lipo6000™ transfection reagent (Beyotime), pGL3B-8xGTiiC-nLuc-CMV-fLuc plasmid, 0.25% EDTA-Tripsin (trypsin digest), 1×PBS (phosphate buffer, PH7.2), 96-well white cell culture plate (PerkinElmer), fetal bovine serum (FBS), 10,000 U/mL penicillin-G/streptomycin, high-speed freezing centrifuge (EPPENDORF 5810R), 37° C. CO2 incubator, Vi-cell® Cell Counter, Envision Microplate Reader (PerkinElmer).
# The revived 293T cells were inoculated into a 10 cm culture dish and placed in an incubator with 5% CO2, and cultured at constant temperature of 37° C. To ensure transfection efficiency, cells at logarithmic phase (cell density of approximately 50%-70%) should be used.
# On the day before transfection, cells at the logarithmic phase were digested with Trypsin-EDTA, and culture medium was added to terminate digestion. The cell suspension was prepared by blowing and mixing using a pipette.
# Cell concentration was measured using Vi-cell, and the cell suspension was diluted to a suspension of 5*10^^5 cells per milliliter. After preparing the cell suspension, the suspension was gently mixed. 10 ml of liquid was added to a 10 cm culture dish. In this way, the number of cells in each 10 cm culture dish was 5*10^^6. The cells were incubated at a constant temperature of 37° C. for 1 day in an incubator with 5% CO2.
# Two clean and sterile centrifuge tubes were taken and added with 750 μL opti-MEM Medium without antibiotics and serum, respectively. Then one tube was added with 15 μg Plasmid (pGL3B-8xGTiiC-nLuc-CMV-fLuc), and gently blew and mixed well using a pipette; the other tube was added with Lipo6000 transfection reagent, and gently blew and mixed using a pipette. After standing at room temperature for 5 minutes, the culture solution containing DNA was added gently to the culture solution containing Lipo6000 transfection reagent, and mixed well by gently inverting the centrifuge tube, then standing at room temperature for 5 minutes.
# The above mixture was added evenly to a 10 cm culture dish and replaced with fresh complete culture medium after 6 hours of cultivation.
# After transfection for 1 day, cells were digested with Trypsin EDTA, and culture medium was added to terminate the digestion. The cell suspension was prepared by blowing and mixing using a pipette.
# Cell concentration was measured using Vi-cell, and the cell suspension was diluted to a suspension of 20000 cells per milliliter.
# After preparing the cell suspension, the suspension was gently mixed, and added to 96-well plate with 100 μL per well. Thus, the density of the cells to be tested is 2000 cells per well.
# The inoculated cell culture plate was placed in the incubator for cultivation, and after about 24 hour, compounds with concentration gradient were added.
# 10 mM compound stock solution was diluted with culture medium to 50 μM. Compound solution of 50 μM was added to the third column of the deep well plate, 216 μL of culture medium containing 0.5% DMSO was added to the fourth to eleventh columns, successively.
# Gradient dilution: taking 100 μL of solution from the third column and adding the solution to the fourth column and mixing well; then taking 100 µL of solution from the fourth column again and adding the solution to the fifth column, repeating this operation until the eleventh column.
# Taking 25 μL of compound solution from the deep well plate and adding it to a 96-well culture plate using a multi-channel pipette. Repeating four times on the 96 well plate for each compound. Finally, a concentration gradient of 1:3.16 was formed in the 96-well plate with a maximum concentration of 10,000 nM. The • (5) Addition of Nano Luciferase Detection Reagent and Read […]
IC50 [1],IC50 (YAP-TEAD),Structure (SMILES)
≤ 1000 nM,≤ 1000 nM,CC(C)NC(=O)c1ccc2c(c1)c1nn(C)cc1c(=O)n2-c1ccc(C(F)(F)F)cc1 [Example T-86]
≤ 1000 nM,≤ 1000 nM,CNS(=O)(=O)c1ccc2c(c1)-c1cn(C)nc1CC(=O)N2c1ccc(C(F)(F)F)cc1 [Example T-52]
≤ 1000 nM,≤ 1000 nM,C[C@H](NC(=O)c1ccc2c(c1)c1nccnc1c(=O)n2-c1ccc(C(F)(F)F)cc1)c1ccccn1 [Example T-337]
≤ 1000 nM,≤ 1000 nM,C[C@H](NC(=O)c1ccc2c(ccc(=O)n2-c2ccc(C(F)(F)F)cc2)c1)c1cccc(N)n1 [Example T-423]
≤ 1000 nM,≤ 1000 nM,C[C@H](NC(=O)c1ccc2c(c1)c1c(c(=O)n2-c2ccc(C(F)(F)F)cc2)CC(F)(F)C1)c1ccccn1 [Example T-294]
≤ 1000 nM,≤ 1000 nM,CNS(=O)(=O)c1ccc2c(c1)c1ncn(C)c1c(=O)n2-c1cccc(C(F)(F)F)c1 [Example T-57]
≤ 1000 nM,≤ 1000 nM,C[C@H](NC(=O)c1ccc2c(c1)c1cnncc1c(=O)n2-c1ccc(C(F)(F)F)cc1)c1ccccn1 [Example T-335]
≤ 1000 nM,≤ 1000 nM,Cn1cc2c(=O)n(-c3ccc(C(F)(F)F)cc3)c3ccc(NC(N)=O)cc3c2n1 [Example T-183]
≤ 1000 nM,≤ 1000 nM,C#CC(=O)Nc1ccc2c(c1)c1nn(C)cc1c(=O)n2-c1ccc(C(F)(F)F)cc1 [Example T-237]
≤ 1000 nM,≤ 1000 nM,Cc1cc(=O)n(-c2ccc(C(F)(F)F)cc2)c2ncc(C(=O)N[C@@H](C)c3cccc(N)n3)cc12 [Example T-457]
≤ 1000 nM,≤ 1000 nM,CN(C)C(=O)Nc1ccc2c(c1)c1nn(C)cc1c(=O)n2-c1ccc(C(F)(F)F)cc1 [Example T-182]
≤ 1000 nM,≤ 1000 nM,CNS(=O)(=O)c1ccc2c(c1)-c1nn(C)cc1CCN2c1ccc(C(F)(F)F)cc1 [Example T-54]
≤ 1000 nM,≤ 1000 nM,C[C@H](NC(=O)c1ccc2c(c1)c1c(c(=O)n2-c2ccc(C(F)(F)F)cc2)CCC1F)c1ccccn1 (some centres unmarked) [Example T-290]
≤ 1000 nM,≤ 1000 nM,COc1ccc2c(=O)n(-c3ccc(C(F)(F)F)cc3)c3ccc(C(=O)N[C@@H](C)c4ccccn4)cc3c2c1 [Example T-315]
≤ 1000 nM,≤ 1000 nM,C[C@H](NC(=O)c1ccc2c(c1)c1nscc1c(=O)n2-c1ccc(C(F)(F)F)cc1)c1cccc(N)n1 [Example T-435]
1000 to 5000 nM,1000 to 5000 nM,COC(=O)c1ccc2c(c1)c1nn(C)cc1c(=O)n2-c1ccc(C(F)(F)F)cc1 [Example T-100]

IC50 [1],IC50 (YAP-TEAD),Structure (SMILES)
1000 to 5000 nM,≤ 1000 nM,COC[C@H](C)NC(=O)c1ccc2c(c1)c(=O)ccn2-c1ccc(C(F)(F)F)cc1 [Example T-35]
1000 to 5000 nM,1000 to 5000 nM,Cn1cc2c(=O)n(-c3ccc(C(F)(F)F)cc3)c3ccc(C(=O)NCc4cnccn4)cc3c2n1 [Example T-140]
≤ 1000 nM,≤ 1000 nM,C[C@H](NC(=O)c1ccc2c(c1)c1c(c(=O)n2-c2ccc(C(F)(F)F)cc2)CCC(F)(F)C1)c1ccccn1 [Example T-307]
≤ 1000 nM,≤ 1000 nM,CCOC(=O)Nc1ccc2c(c1)c1nn(C)cc1c(=O)n2-c1ccc(C(F)(F)F)cc1 [Example T-193]
≤ 1000 nM,≤ 1000 nM,C[C@H](NC(=O)c1cnc2c(c1)c1c(c(=O)n2-c2ccc(C(F)(F)F)cc2)CCC1)c1ccccn1 [Example T-245]
1000 to 5000 nM,1000 to 5000 nM,Cn1cc2c(=O)n(-c3ccc(C(F)(F)F)cc3)c3ccc(C(=O)O)cc3c2n1 [Example T-110]
1000 to 5000 nM,1000 to 5000 nM,C[C@H](NS(=O)(=O)c1ccc2c(c1)c1nn(C)cc1c(=O)n2-c1ccc(OC(F)(F)F)cc1)c1ccccn1 [Example T-167]
≤ 1000 nM,≤ 1000 nM,Cn1cc2c(=O)n(-c3ccc(C(F)(F)F)cc3)c3ccc(NC(=O)C(F)(F)F)cc3c2n1 [Example T-174]
≤ 1000 nM,≤ 1000 nM,Cc1ccc2c(=O)n(-c3ccc(C(F)(F)F)cc3)c3ccc(C(=O)N[C@@H](C)c4ccccn4)cc3c2c1 [Example T-255]
1000 to 5000 nM,1000 to 5000 nM,C[C@H](NS(=O)(=O)c1ccc2c(c1)c1nn(C)cc1c(=O)n2-c1ccc(C(F)(F)F)cc1)c1ccccc1 [Example T-165]
1000 to 5000 nM,1000 to 5000 nM,C=CC(=O)NC(C)c1c(C)c2ccccc2n(-c2ccc(C(F)(F)F)cc2)c1=O (centres unmarked) [Example T-285]
≤ 1000 nM,≤ 1000 nM,C[C@H](NC(=O)c1ccc2c(n1)c1c(Cl)scc1c(=O)n2-c1ccc(C(F)(F)F)cc1)c1ccccn1 [Example T-387]
≤ 1000 nM,≤ 1000 nM,Cc1ccc2c(c1)c(=O)n(-c1ccc(C(F)(F)F)cc1)c1ccc(C(=O)N[C@@H](C)c3ccccn3)cc21 [Example T-256]
1000 to 5000 nM,1000 to 5000 nM,CN(C)Cc1cccc(NC(=O)c2ccc3c(c2)c2nn(C)cc2c(=O)n3-c2ccc(C(F)(F)F)cc2)c1 [Example T-115]
≤ 1000 nM,≤ 1000 nM,C[C@H](NC(=O)c1ccc2c(c1)c1nn(C)cc1c(=O)n2-c1ccc(C(F)(F)F)cc1)c1cccc(N)n1 [Example T-148]
